Results as given in PMC6826779, “Bis-allylic Deuterated DHA Alleviates Oxidative Stress in Retinal Epithelial Cells” (Antioxidants, 2019).
One block for each compound: values may come before it.

Columns and labels:
[1] = target: T1, 15-sLOX (Glycine max, UniProt P08170); experiment: Kinetics parameters of 15s-LOX (UV 270 nm, Michaelis-Menten); type: biochemical, Glycine max (soybean)
T1 sequence (P08170 1-839): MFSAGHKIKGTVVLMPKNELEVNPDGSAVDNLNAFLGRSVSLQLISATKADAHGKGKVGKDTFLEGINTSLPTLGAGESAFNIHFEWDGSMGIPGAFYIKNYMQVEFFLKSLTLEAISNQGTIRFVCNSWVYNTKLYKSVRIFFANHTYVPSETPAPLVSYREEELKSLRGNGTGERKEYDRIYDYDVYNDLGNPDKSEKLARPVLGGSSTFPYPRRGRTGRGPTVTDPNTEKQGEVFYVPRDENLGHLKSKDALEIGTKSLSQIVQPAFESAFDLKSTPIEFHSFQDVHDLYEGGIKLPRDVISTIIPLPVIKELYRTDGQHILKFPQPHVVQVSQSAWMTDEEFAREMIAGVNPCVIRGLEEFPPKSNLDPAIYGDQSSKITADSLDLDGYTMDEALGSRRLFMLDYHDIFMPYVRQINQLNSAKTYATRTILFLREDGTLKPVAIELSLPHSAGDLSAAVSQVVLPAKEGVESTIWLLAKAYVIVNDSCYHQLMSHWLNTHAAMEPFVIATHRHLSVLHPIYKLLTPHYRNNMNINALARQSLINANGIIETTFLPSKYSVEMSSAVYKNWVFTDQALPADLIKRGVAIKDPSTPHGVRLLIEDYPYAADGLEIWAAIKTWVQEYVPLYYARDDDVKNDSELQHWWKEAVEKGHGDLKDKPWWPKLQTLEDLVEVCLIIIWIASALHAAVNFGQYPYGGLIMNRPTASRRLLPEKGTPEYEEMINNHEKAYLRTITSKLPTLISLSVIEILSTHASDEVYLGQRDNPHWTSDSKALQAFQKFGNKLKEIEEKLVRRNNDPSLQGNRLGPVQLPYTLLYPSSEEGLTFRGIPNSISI
Protocol: The activity of 15-sLOX was monitored on a Beckman Coulter DU730 Life Sciences UV-visible spectrometer at a wavelength of 270 nm monitoring the conjugated triene structure in the dihydroxylation products. For the measurements a reaction mixture of DHA or deuterated DHA (0.02 mM; 0.04 mM; 0.1 mM and 0.2 mM) was prepared in 750 µL sodium borate buffer (50 mM, pH 9) by ultrasonification for 10 s. The reaction was subsequently initiated by the addition of 10 µL 15-sLOX (4 mg/mL) to make a total volume of 760 µL in a Hellma CEL2056 quartz cuvette with 1 cm path length (20 °C). The initial reaction rates (V(0)), derived from the recorded UV-absorbance using the law of Lambert-Beer (molar extinction coefficient = 40,000), were plotted against the respective DHA concentrations and fitted to Michaelis-Menten kinetics in GraphPad Prism 7.0. All V(0) values were determined in triplicate and the average of three independent experiments was plotted against the substrate concentrations to yield Michaelis-Menten kinetics.

[2] = target: T1, 15-sLOX; experiment: LC-MS/MS of 15s-LOX oxidized samples (product profile); type: biochemical, Glycine max (soybean); details: 0.1 mM substrate, 30 min reaction, room temperature
Protocol: In order to gain insights on the nature of the produced metabolites, LC-MS/MS analysis of the reaction products were carried out. To this end, the respective DHA variants (0.1 mM) were incubated in a 2 mL eppendorf tube with 10 µL 15-sLOX (4 mg/mL) in sodium borate buffer (50 mM, pH 9) for 30 min at room temperature and the reaction quenched by the addition of cold MeOH (760 µL). The hydroperoxides were reduced with the addition of aq. SnCl2 (50 µL, 5 mg/mL) and subsequently the mixture was centrifuged (16,100 ×g for 5 min). Water (2 mL) was added to the supernatant, followed by the dropwise addition of glacial acetic acid (40 µL). The products were purified by SPE using SepPak 200 mg C18 cartridges (3CC), according to published protocols. The methyl formate eluates were evaporated to dryness, dissolved in MeOH (0.5 mL) and stored at −80 °C until analysis. The resulting solution was diluted 1000 times with MeOH for LC-MS/MS measurements. To 120 µL water, 72 µL of MeOH, 4 µL of the diluted solution and 4 µL of an internal standard (15-HETE-d8, Leukotriene LTB4-d4 and DHA-d5) was added. The samples were loaded in a SIL-30AC autosampler and the analytes separated on a Kinetex 1.7 µm C18 100Å, 50 × 2.1 mm LC column as described. The detection of DHA metabolites was performed in selected ion monitoring mode using several traces in order to take the eventual loss of a deuterium atom into account. The following traces were used: m/z 327.2, 343.2, 359.2 and 375.2 for DHA and its metabolites, m/z 327.2, 328.2, 329.2, 344.2, 345.2, 360.2, 361.2, 376.2, 377.2 for D2-DHA, m/z 331.2, 345.3, 346.2, 361.2, 362.3, 363.2, 377.2, 378.2 and 379.2 for D4-DHA and m/z 337.2, 352.2, 353.2, 367.2, 368.2, 369.2, 383.2, 384.2 and 385.2 for D10-DHA. Tandem mass spectra were recorded as product ion scans. Quantification of the metabolites was done by calculating the area ratio between the analyte and the internal standard (DHA-d5 for non-hydroxylated, 15-HETE-d8 for mono-hydroxylated and LTB4-d4 for di-hydroxylated derivatives) using Multiquant version 3.0.2.

[3] = system: ARPE-19 cells; experiment: cells; type: cell-based; details: ARPE-19, H2O2 treatment 600 µM in 1% FBSM
Protocol: ARPE-19 cells were obtained from ATCC, and maintained in Dulbecco’s Modified Eagle’s Medium (DMEM)/Ham F12 (GIBCO) containing 10% (v/v) fetal bovine serum (FBS) and 1% (v/v) penicillin/streptomycin under a humidified (95%)/CO2 (5%) atmosphere at 37 °C. For splitting and experiments, cells were dissociated with 0.25% trypsin-EDTA, re-suspended in the culture medium and then plated at 1–3 × 10^5 cells/mL. Cells were cultured and used up to a maximum of 10 passages.
(§1) Cell viability was determined by the MTT colorimetric assay. Cells were incubated for 2 h with MTT reagent (0.5 mg/mL). The absorbance at 570 nm and 655 nm of individual wells was measured using a microplate reader (BioRad 550). The percentage of viable cells was calculated as [(OD570 sample – OD655 sample)/(OD570 control – OD655 control)] × 100%.
ARPE-19 cells were plated into 96-well plates (3 × 10^4 cells/well) and cultured for 24 h to reach confluence before DHA treatment. The cells were treated in medium with 1% FBS (1% FBSM), or with H2O2 prepared in medium with FBS (1%, v/v) to a final concentration of 600 μM. Cells were then treated with DHA, D2-DHA and D4-DHA, at different concentrations (0–80 μm) for 24 h. Control cells were incubated with DMSO (0.2%). After 4 h, cell viability was determined in triplicate using the MTT colorimetric assay. Results were expressed in percentage of viable cells normalized with control conditions in the absence of PUFA and H2O2 stress.
Sigmoidal doses-responses linked to the toxicity were obtained using GraphPad prism software, allowing to calculate IC50 values described as the concentration leading to 50% of cell viability.

[4] = system: ARPE-19 cells; experiment: Lipid peroxidation status with C11-Bodipy581/591 probe (FACS) under oxidative conditions; type: cell-based; details: ARPE-19, 50 µM for 24 h
Protocol: ARPE-19 cells were plated into 2 cm^2 wells (2 × 10^5 cells/well) and cultured for 24 h to reach confluence before PUFA or lipophenol treatment. The cell cultures were treated with 1% FBSM containing tested compounds (deuterated DHAs or deuterated lipophenols) at 50 μM for 24 h and then rinsed with media before the incubation of 5 µM C11-Bodipy^581/591 for 30 min. Then, the cells were rinsed and treated with the different stressors, corresponding to different protocols. For chemical stress the cells were incubated with 400 µM of H2O2 during 24 h followed by FACS analysis. For photobleaching stress, the cells were exposed to a white LED lamp with an intensity of 5000 lux at room temperature during 1 h followed by the FACS analysis.
FACS was performed with the BD Accuri C6 Flow Cytometer and BD Accuri C6 Software for data acquisition (BD Biosciences). This flow cytometer is equipped with an excitation laser at 488 nm, and a fluorescence detector FL1 533/30 nm. Data were collected to 10,000 events for each sample using a flow rate of 35 µL/min. Parameters obtained for data analysis included: cell size from the forward scatter (FSC), granularity from the side scatter (SSC) and the green fluorescence of the stained cells with C11-Bodipy^581/591.
First the SSC-A versus FSC-A dot-plot was used to gate the cellular population and remove the cellular debris. Then the SSC-A versus SSC-H dot-plot was used to remove cell doublets in the previous gate to give a final gate. The cellular population in the last gate designed was plotted on count versus log green fluorescence to give the fluorescence mean intensity of FL1. The mean FL1 values were normalized to the cells only stained with C11-Bodipy^581/591.

[5] = system: ARPE-19 cells; experiment: Protection of lipophenols against all-trans-retinal (MTT cell viability); type: cell-based; details: ARPE-19, pretreatment 80 µM 1 h, trans-retinal 25 µM 4 h, MTT after 20 h
Protocol: as §1
ARPE-19 cells were plated into 96-well plates (3 × 10^4 cells/well) and cultured for 24 h to reach confluence before lipophenol treatment. Cells were treated with serum free medium containing lipophenols at different concentrations (0–80 μM) for 1 h. Then all-trans-retinal was added to a final concentration of 25 μM for 4 h (in DMF), before rinsing with medium. Cell viability was determined 16–20 h later, in triplicate samples, using the MTT colorimetric assay. Control cells were incubated with DMSO (0.2%) and DMF (0.14%). The data are expressed as the percentage of untreated cells (CTL, without all-trans-retinal).

[6] = serum starvation (1% FBSM) 48 h

SMILES: CC/C=C\C/C=C\C/C=C\C/C=C\C/C=C\C/C=C\CCC(=O)O [D10-DHA]
Km ([1]; 15s-LOX, substrate 0.02-0.2 mM, borate buffer pH 9, 20 °C, 270 nm): 3.27 µM

fold decrease in the Vmax value ([1]; 15s-LOX, compared with the other DHAs): more than 10 fold | 15s-LOX activity for the double hydroxylation product ([1]; monitored at 270 nm): significantly reduced activity | pre-dominant product of 15-sLOX oxidation (LC-MS) [2]: vast excess obtained for 17S-HDHA
SMILES: [2H]C([2H])(/C=C\CC)/C=C\C([2H])([2H])/C=C\C([2H])([2H])/C=C\C([2H])([2H])/C=C\C([2H])([2H])/C=C\CCC(=O)O [D10-DHA]

SMILES: OO [H2O2, Hydrogen peroxide, reference compound]
cell mortality [3]: 60–70%

SMILES: [2H]C([2H])(/C=C\C/C=C\C/C=C\C/C=C\C/C=C\CC)/C=C\CCC(=O)Oc1cc(O)cc(OC(C)C)c1 [IP-D2-DHA, phloroglucinol-OiPr-O-(6,6-D2)-DHA]
lipid peroxidation status (C11-BODIPY fluorescence) [4, 6]: slight but significant decrease in lipid peroxidation | increase in cell viability against all-trans-retinal [5]: 52%

SMILES: [2H]C([2H])(C=CCC=CCC=CCC=CCC)C=CC([2H])([2H])C=CCCC(=O)Oc1cc(O)cc(OC(C)C)c1 [IP-D4-DHA, phloroglucinol-OiPr-O-(6,6,9,9-D4)-DHA]
lipid peroxidation status (C11-BODIPY fluorescence) ([4]; serum starvation (1% FBSM) 24 h): decreased lipid peroxidation compared to IP-DHA and IP-D2-DHA | lipid peroxidation status (C11-BODIPY fluorescence) [4, 6]: slight but significant decrease in lipid peroxidation | lipid peroxidation status (C11-BODIPY fluorescence) ([4]; then H2O2 400 µM 24 h): decreased the lipid peroxidation status relative to IP-DHA and IP-D2-DHA | lipid peroxidation status (C11-BODIPY fluorescence) ([4]; then photobleaching (white light, 5000 lux, 1 h)): reduction of lipid oxidation | increase in cell viability against all-trans-retinal [5]: 47%

SMILES: CC/C=C\C/C=C\C/C=C\C/C=C\C/C=C\C/C=C\CCC(=O)Oc1cc(O)cc(OC(C)C)c1 [IP-DHA]
increase in cell viability against all-trans-retinal [5]: 42%
